For data set [1], the system named is LAPC4 cells. In words: LAPC4 cell proliferation, trypan blue exclusion assay. The data set is classed as cell-based. Particulars: Homo sapiens, 96 hr, viable cells by trypan blue exclusion. The text has this:
FIGS. 2A-2B show identification of 3 distinct types of inhibitors. […] In addition, the lysates were also subjected to by immunoblotting with […]-Cdc2 or actin antibodies (middle and bottom panels). […] The number vehicle treated cells were used as control and percent of surviving cells were plotted. […] The number of vehicle treated cells were used as control and percent of surviving cells were plotted. […] The number vehicle treated cells were used as control and percent of surviving cells were plotted. 7 of these epigenetic inhibitors in various assays such as cell proliferation assay, an in vitro kinase assay were performed and WEE1 autophosphorylation in vivo was determined. Prostate cancer derived LAPC4 cells were treated with inhibitors and its effect on cell proliferation was examined.

Data set [2] relates to histone H2B Tyr37-phopshorylation (pY37-H2B). Nature of the data set: WEE1 epigenetic activity in cells: pY37-H2B immunoprecipitation/immunoblot. The settings on record: LNCaP cells. Type of data set: cell-based, human. The text has this: FIGS. 2A-2B show identification of 3 distinct types of inhibitors. […] In addition, the lysates were also subjected to by immunoblotting with pY15-Cdc2 or actin antibodies (middle and bottom panels). […] The number vehicle treated cells were used as control and percent of surviving cells were plotted.
FIGS. 4A-4B show structures of ‘hits’ identified in WEE1 epigenetic inhibitor screen. […] The reaction mix was then subjected to immunoprecipitated with WEE1 antibodies, followed by immunoblotting with pTyr antibodies. […] In addition, the lysates were also subjected to immunoblotting with actin antibodies (bottom panel).
FIGS. 7A-7C show identification of WEIN-159 as a potent WEE1 epigenetic inhibitor. […] In addition, lysates were immunoprecipitated with pY37-H2B antibodies, followed by immunoblotting with H2B antibodies (middle panel). […] The lysates were also subjected to immunoblotting with pY15-Cdc2 antibodies and were immunoprecipitated with pY37-H2B antibodies, followed by immunoblotting with H2B antibodies (middle panels). In addition, the lysates were also subjected to immunoblotting with H2B antibodies (bottom panel). […] The lysates were also subjected to immunoblotting with pY15-Cdc2 antibodies and were immunoprecipitated with pY37-H2B antibodies, followed by immunoblotting with H2B antibodies (middle panels). In addition, the lysates were also subjected to immunoblotting with actin antibodies (bottom panel).
Identification of compounds with WEE1 epigenetic inhibitory role: 14 ‘hits’ that were identified in the screen are shown in FIG. 1. These compounds were further tested for their ability to inhibit WEE1 epigenetic activity. Prostate cancer derived LNCaP cells were treated with 3 uM of compounds for 48 hours. Cells were harvested, lysates were prepared, and WEE1 epigenetic activity was detected by determining histone H2B Tyr37-phopshorylation (pY37-H2B). Lysates were also assessed for WEE1 cell cycle inhibitory activity by determining Cdc2 Tyr15-phosphorylation (pY15-Cdc2). […] These are named as ‘Cell Cycle’ inhibitors. […] These compounds are the ‘Epigenetic’ inhibitors.
(In general: In western blotting, separated proteins are transferred to a membrane and probed.)

The test system of data set [3] is Cdc2 Tyr15-phosphorylation (pY15-Cdc2). Nature of the data set: WEE1 cell cycle inhibitory activity in cells: pY15-Cdc2 immunoblot. Type of data set: cell-based, human. The settings on record: LNCaP cells. The text has this:
FIGS. 2A-2B show identification of 3 distinct types of inhibitors. […] In addition, the lysates were also subjected to by immunoblotting with […]-Cdc2 or actin antibodies (middle and bottom panels). […] The number vehicle treated cells were used as control and percent of surviving cells were plotted. […] In addition, the lysates were also subjected to immunoblotting with actin antibodies (bottom panel). Identification of compounds with WEE1 epigenetic inhibitory role: 14 'hits' that were identified in the screen are shown in FIG. 1. These compounds were further tested for their ability to inhibit WEE1 epigenetic activity. Prostate cancer derived LNCaP cells were treated with 3 uM of compounds for 48 hours. […] Lysates were also assessed for WEE1 cell cycle inhibitory activity by determining Cdc2 Tyr15-phosphorylation ([…]-Cdc2). […] These are named as 'Cell Cycle' inhibitors. […] These compounds are the 'Epigenetic' inhibitors.

In data set [4] the test system is gamma-H2AX. Nature of the data set: DNA damage, gamma-H2AX immunoblot in LNCaP cells. Particulars: 3 μM, 12 hours (FIG. 3C). Type of data set: cell-based, human. On the procedure:
The reaction mix was then subjected to immunoprecipitated with WEE1 antibodies, followed by immunoblotting with pTyr antibodies (top panel). As a control, purified ACK1 protein was incubated in the reaction buffer containing ATP, in presence of 100 nM epigenetic inhibitors. The reaction mix was then subjected to immunoprecipitated with ACK1 antibodies, followed by immunoblotting with pTyr antibodies (bottom panel). […] In addition, the lysates were also subjected to immunoblotting with actin antibodies (bottom panel). […] In addition, the lysates were also subjected to immunoblotting with actin antibodies (bottom panel).
H2AX becomes phosphorylated on serine 139, called gamma-H2AX, is a marker of DNA damage as it localizes to sites of DNA strand breaks. This sensor then functions to trigger activation of the DNA damage response pathways. To assess whether any of the epigenetic inhibitors are potent DNA-damaging agents, cells were treated with the compounds followed by immunoblotting with gamma-H2AX antibodies.

Data set [5] deals with T1, Wee1 KD (Homo sapiens, UniProt P30291).
T1 construct: WEE1 & WEE2 (as control) kinase domains from mammalian cells (HEK293T cells) were purified
In words: Differential Scanning Fluorimetry (DSF), Wee1 KD. The data set is classed as binding. The settings on record: kinase domain purified from HEK293T cells. How it is done: (§1) Binding study of WEE1 epigenetic inhibitors: To identify the precise binding region/domain of WEE1 epigenetic inhibitors, WEE1 & WEE2 (as control) kinase domains from mammalian cells (HEK293T cells) were purified. The binding of inhibitors was assessed using Differential Scanning Fluorimetry (DSF).

Data set [6] concerns the target T2, Wee2 KD (Homo sapiens, UniProt P0C1S8).
T2 construct: WEE1 & WEE2 (as control) kinase domains from mammalian cells (HEK293T cells) were purified
In words: Differential Scanning Fluorimetry (DSF), Wee2 KD. The settings on record: kinase domain purified from HEK293T cells. Type of data set: binding. On the procedure:
as §1
For orientation: DSF heats the sample and reads unfolding from a dye or from intrinsic fluorescence.

Data set [7] concerns LNCaP cells. In words: Cell cycle analysis by propidium iodide staining. Type of data set: cell-based, human. The settings on record: 16 hours. On the procedure: To further validate this observation, LNCaP cells were treated with WEIN-159 and 172 for 16 hours and cell cycle analysis was performed by propidium iodide staining.
Data set [8] addresses full length human WEE1 kinase (Homo sapiens, UniProt P30291). Nature of the data set: ELISA based assay: WEE1 phosphorylation of biotinylated H2B peptide spanning Tyr37. Further details: A full length human WEE1 kinase that was enzymatically active was purified from insect cell; ELISA assay % Inhibition: concentration or dose not given beside the values. The settings on record: for ELISA Inhibition (%): Table 1, several values in a cell are repeat determinations. Type of data set: biochemical. The text has this: Designing of a Novel inhibitor Screening Platform: […] A full length human WEE1 kinase that was enzymatically active was purified from insect cell. […] NCI diversity set compound library ( 1600 compounds) was used for the screening.
In general terms: An ELISA detects its analyte on a solid surface through an enzyme-linked reagent.

Values joined by “and” are separate entries in the source; they are usually repeats but may differ in a detail not shown here. Equal values may be shown once.

Chain of full length human WEE1 kinase (P30291 whole entry): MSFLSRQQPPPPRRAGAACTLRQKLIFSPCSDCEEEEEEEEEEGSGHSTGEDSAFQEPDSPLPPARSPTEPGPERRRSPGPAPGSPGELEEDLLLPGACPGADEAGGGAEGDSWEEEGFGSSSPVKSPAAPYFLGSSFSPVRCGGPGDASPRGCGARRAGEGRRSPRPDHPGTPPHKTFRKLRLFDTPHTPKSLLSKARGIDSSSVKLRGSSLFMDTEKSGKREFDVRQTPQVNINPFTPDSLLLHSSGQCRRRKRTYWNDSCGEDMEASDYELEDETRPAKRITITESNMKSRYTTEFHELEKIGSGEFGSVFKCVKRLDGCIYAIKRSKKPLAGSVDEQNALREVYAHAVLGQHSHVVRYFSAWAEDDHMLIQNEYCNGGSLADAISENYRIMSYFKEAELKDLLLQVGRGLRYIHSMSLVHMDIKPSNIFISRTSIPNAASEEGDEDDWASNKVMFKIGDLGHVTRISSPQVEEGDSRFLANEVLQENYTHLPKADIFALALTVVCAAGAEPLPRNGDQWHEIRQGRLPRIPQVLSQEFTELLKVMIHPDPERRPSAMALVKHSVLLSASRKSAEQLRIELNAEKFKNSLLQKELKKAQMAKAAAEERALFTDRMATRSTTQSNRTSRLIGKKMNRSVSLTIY
T2 sequence (P0C1S8 212-486): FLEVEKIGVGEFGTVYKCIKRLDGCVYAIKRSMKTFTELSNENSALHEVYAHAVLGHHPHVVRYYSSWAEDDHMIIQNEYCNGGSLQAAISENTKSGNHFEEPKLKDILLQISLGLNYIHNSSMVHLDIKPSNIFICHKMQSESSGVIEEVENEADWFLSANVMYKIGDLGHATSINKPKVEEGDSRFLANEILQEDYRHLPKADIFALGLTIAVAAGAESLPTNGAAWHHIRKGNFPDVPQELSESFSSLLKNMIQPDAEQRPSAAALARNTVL
T1 sequence (P30291 299-569): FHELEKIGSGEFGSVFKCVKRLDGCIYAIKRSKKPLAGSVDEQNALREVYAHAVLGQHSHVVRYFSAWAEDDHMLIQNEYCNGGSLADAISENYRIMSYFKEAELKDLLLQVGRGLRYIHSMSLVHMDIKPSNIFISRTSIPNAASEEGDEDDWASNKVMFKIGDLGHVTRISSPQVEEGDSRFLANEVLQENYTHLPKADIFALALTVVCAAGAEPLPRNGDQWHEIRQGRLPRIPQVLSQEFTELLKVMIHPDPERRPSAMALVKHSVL

For the molecule `C=CCn1c(=O)c2cnc(Nc3ccc(N4CCN(C)CC4)cc3)nc2n1-c1cccc(C(C)(C)O)n1` [AZD-1775, reference compound], half-maximal inhibition in data set [1] (IC50) required 350 nM. In data set [2] (3 uM, 48 hours (FIG. 2A)), the “H2B Tyr37-phosphorylation (pY37-H2B)” value was “loss of both H2B and Cdc2-phosphorylation”. Moreover, the “Cdc2 Tyr15-phosphorylation (pY15-Cdc2)” value in data set [3] (3 uM, 48 hours (FIG. 2A)) was “loss of both H2B and Cdc2-phosphorylation”. Besides, in data set [4], the “DNA damage (gamma-H2AX)” value is on record as “intensified double-strand DNA breakage”. The “ΔTm for Wee1 KD (° C.)” value in data set [5] worked out at 16.2 °C. Moreover, the “ΔTm for Wee2 KD (° C.)” value in data set [6] amounted to 11.9 °C. Also, in data set [7], the “Cell Cycle Analysis G1” value is 56.51, the “Cell Cycle Analysis G2/M” value is 4.27 and the “Cell Cycle Analysis S” value is given as 39.22. Besides, the “ELISA assay % Inhibition” value in data set [8] (Table 3, No peptide = 100, No inhibitor = 0) is 54%.

For the molecule `Nc1ccc(NC(=O)c2ccc(C(=O)Nc3ccc(N)cc3)o2)cc1` [SG5-111, N^2,N^5-bis(4-aminophenyl)furan-2,5-dicarboxamide], in data set [2] (10 μM, 24 hours (FIG. 7A)), the “H2B Tyr37-phopshorylation” value is recorded as “almost complete loss of H2B Tyr37-phopshorylation”. The “Cdc Tyr-phopshorylation” value in data set [3] (10 μM, 24 hours (FIG. 7A)) is “unaffected”. In addition, the “ELISA Inhibition (%)” value in data set [8] is 46% and 55%.

Turning to `Cl.Cl.Cl.Nc1ccc(NC(=O)c2ccc(C(=O)Nc3ccc(N)c(F)c3)nc2)cc1F` [SG5-147-3, (2,5-Bis((4-amino-3-fluorophenyl)carbamoyl)pyridin-1-ium-1-yl)hydridochlorate(I) dihydrochloride], in data set [8], the “ELISA Inhibition (%)” value was found to be 50%.

As for `Cl.Nc1ccc(NC(=O)C2CCC(C(=O)Nc3ccc(N)c(F)c3)CC2)cc1F` (stereo not shown) [SG5-147-4], the “ELISA Inhibition (%)” value in data set [8] was 20%.

As for `Cc1cc(C(=O)Nc2ccc(N)c(Cl)c2)c(C)cc1C(=O)Nc1ccc(N)c(Cl)c1.Cl` [SG5-147-5], the “ELISA Inhibition (%)” value in data set [8] is reported as 2%.

As for `Cl.Nc1ccc(NC(=O)c2ccc(C(=O)Nc3ccc(N)c(Cl)c3)o2)cc1Cl` [SG5-147-6], the “ELISA Inhibition (%)” value in data set [8] is 13%.

Turning to `Cl.Nc1ccc(NC(=O)C2CCC(C(=O)Nc3ccc(N)c(Cl)c3)CC2)cc1Cl` (stereo not shown) [SG5-147-8], the “ELISA Inhibition (%)” value in data set [8] is recorded as 17%.

Take `Cc1cc(C(=O)Nc2ccc(CN)cc2)c(C)cc1C(=O)Nc1ccc(CN)cc1.Cl` [SG5-147-9]: the “ELISA Inhibition (%)” value in data set [8] was determined as 9%.

Regarding `Cl.NCc1ccc(NC(=O)c2ccc(C(=O)Nc3ccc(CN)cc3)o2)cc1` [SG5-147-10], the “ELISA Inhibition (%)” value in data set [8] was determined as 4%.

With `Cl.NCc1ccc(NC(=O)C2CCC(C(=O)Nc3ccc(CN)cc3)CC2)cc1` (stereo not shown) [SG5-147-12], the “ELISA Inhibition (%)” value in data set [8] is −9%.

For `Cc1cc(C(=O)NCc2ccc(N)cc2)c(C)cc1C(=O)NCc1ccc(N)cc1.Cl` [SG5-147-13], the “ELISA Inhibition (%)” value in data set [8] was 12%.

As to `Cl.Nc1ccc(CNC(=O)c2ccc(C(=O)NCc3ccc(N)cc3)o2)cc1` [SG5-147-14], the “ELISA Inhibition (%)” value in data set [8] was −16%.

As to `Cl.Nc1ccc(CNC(=O)C2CCC(C(=O)NCc3ccc(N)cc3)CC2)cc1` (stereo not shown) [SG5-147-16], in data set [8], the “ELISA Inhibition (%)” value is recorded as −14%.

Consider `Cc1cc(C(=O)NC2CCNCC2)c(C)cc1C(=O)NC1CCNCC1.Cl` [SG5-147-17], for which the “ELISA Inhibition (%)” value in data set [8] is 21%.

Consider `Cl.O=C(NC1CCNCC1)c1ccc(C(=O)NC2CCNCC2)o1` [SG5-147-18], for which, in data set [8], the “ELISA Inhibition (%)” value is −5%.

On to `Cl.O=C(NC1CCNCC1)C1CCC(C(=O)NC2CCNCC2)CC1` (stereo not shown) [SG5-147-20], for which the “ELISA Inhibition (%)” value in data set [8] is given as 22%.

Turning to “(2,5-Bis((4-(aminomethyl)phenyl)carbamoyl)pyridin-1-ium-1-yl)hydridochlorate(I) dihydrochloride [SG5-147-11]”, the “ELISA Inhibition (%)” value in data set [8] worked out at 68%.

(Values after patent publication US11987568B2, “Allosteric inhibitor of WEE1 kinase” (H. LEE MOFFITT CANCER CENTER AND RESEARCH INSTITUTE, INC., priority 2018, dated 2024).)
